Measurements as given in US20240269298A1, “PHOSPHONYL DERIVATIVE, AND COMPOSITION AND PHARMACEUTICAL APPLICATION THEREOF” (XIZANG HAISCO PHARMACEUTICAL CO., LTD., priority 2021, published 2024).
Like-named read-outs stand apart in the source and are kept apart here.

Tests used:
[1] = test system: NCI-H1975 (EGFR-L858R-T790M) cells; assay: Inhibitory activity on proliferation of NCI-H1975 (EGFR-L858R-T790M) cells (CTG, 72 h); assay type: cell-based; conditions: Homo sapiens
Outline: (§1)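 IC50 values come from S-shaped dose-survival fits of CTG signal expressed as % of vehicle. Compound exposure lasted 72 h at 37 °C with 0.1% DMSO; seeding was 3000 A431 cells/well in DMEM+10% FBS and 1000 NCI-H1975 cells/well in RPMI1640+10% FBS.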

A431 (EGFR-WT) cells = assay: Inhibitory activity on proliferation of A431 (EGFR-WT) cells (CTG, 72 h); assay type: cell-based; conditions: Homo sapiens, A-431
Outline: as §1

[2] = Pharmacokinetic test in mice; assay type: in vivo; conditions: male, ICR, mouse, po, administration i.g. (10 mg/kg), plasma
Protocol: Test objective: In this experiment, a single dose of test compounds was administered to ICR mice intravenously and intragastrically, the concentrations of the test compounds in plasma of mice were measured, and the pharmacokinetic characteristics and bioavailability of the test compounds in mice were evaluated.
Experimental animals: male ICR mice, 20-25 g, purchased from BEIJING HFK BIOSCIENCE CO., LTD. with the laboratory animal production license number of SCXK (JING) 2019-0008; or purchased from CHENGDU DDOSSY EXPERIMENTAL ANIMALS CO., LTD. (SCXK (CHUAN) 2020-030); or purchased from HUNAN SJA LABORATORY ANIMAL CO., LTD. (SCXK (XIANG) 2019-0004).
Experimental method: on the day of the experiment, ICR mice were randomly grouped according to their body weights. The mice were fasted with water available for 12 to 14 hours one day before the administration, and were fed 4 hours after the administration.
Sampling: before and after the administration, blood was taken from the orbits of the mice under isoflurane anesthesia, and placed in an EDTAK2 centrifuge tube. Centrifugation was carried out at 5000 rpm at 4° C. for 10 min, and the plasma was collected.
Time points for plasma collection in G1&G2 groups: 0, 5 min, 15 min, 30 min, 1h, 2h, 4h, 6h, 8h, and 24 h; • time points for plasma collection in G3 group: 0, 5 min, 15 min, 30 min, 1 h, 2 h, 4 h, 6h, 8h, and 24 h; • before analysis and detection, all samples were stored at −80° C. The samples were analyzed quantitatively by LC-MS/MS.

[3] = read-out: IC50 (value in brackets)

IC50 ([1]; read-out: IC50 (class symbol)) [nM]	IC50 [1, 3] [nM]	IC50 (A431 (EGFR-WT) cells) [nM]	AUC(0-t) [2] [ng·h/mL]	AUC [2] [ng·h/mL]	half-life [2] [h]	SMILES
< 100	76	≥ 10000	–	93100	6.68	COc1cc(N2CCC3(CCN(c4ccc5c(c4)C(=O)N(C4CCC(=O)NC4=O)C5=O)CC3)CC2)c(-c2cnn(C)c2)cc1Nc1ncc(Br)c(Nc2ccc(F)cc2P(C)(C)=O)n1 (centres unmarked) [Compound 163, 5-(9-(4-((5-bromo-4-((2-(dimethylphosphoryl)-4-fluorophenyl)amino)pyrimidin-2-yl)amino)-5-methoxy-2-(1-methyl-1H-pyrazol-4-yl)phenyl)-3,9-diazaspiro[5.5]undecan-3-yl)-2-(2,6-dioxopiperidin-3-yl)isoindoline-1,3-dione]
< 100	27	–	–	86600	5.91	COc1cc(N2CCC(CN3CCN(c4ccc5c(c4)C(=O)N(C4CCC(=O)NC4=O)C5=O)CC3)CC2)c(-c2cnn(C)c2)cc1Nc1ncc(Br)c(Nc2ccc(F)cc2P(C)(C)=O)n1 (centres unmarked) [Compound 141, 5-(4-((1-(4-((5-bromo-4-((2-(dimethylphosphoryl)-4-fluorophenyl)amino)pyrimidin-2-yl)amino)-5-methoxy-2-(1-methyl-1H-pyrazol-4-yl)phenyl)piperidin-4-yl)methyl)piperazin-1-yl)-2-(2,6-dioxopiperidin-3-yl)isoindoline-1,3-dione]
< 100	69	≥ 10000	–	–	–	COc1cc(N2CCC(C(=O)N3CCN(c4ccc5c(c4)C(=O)N(C4CCC(=O)NC4=O)C5=O)CC3)CC2)c(-c2cnn(C)c2)cc1Nc1ncc(Br)c(Nc2ccc(C3CC3)cc2P(C)(C)=O)n1 (centres unmarked) [Compound 145, 5-(4-(1-(4-((5-bromo-4-((4-cyclopropyl-2-(dimethylphosphoryl)phenyl)amino)pyrimidin-2-yl)amino)-5-methoxy-2-(1-methyl-1H-pyrazol-4-yl)phenyl)piperidine-4-carbonyl)piperazin-1-yl)-2-(2,6-dioxopiperidin-3-yl)isoindoline-1,3-dione]
< 100	33	–	–	104000	5.12	COc1cc(N2CCC(CN3CCN(c4ccc5c(c4)C(=O)N(C4CCC(=O)NC4=O)C5=O)CC3)CC2)c(-c2cnn(C)c2)cc1Nc1ncc(Cl)c(Nc2ccc(F)cc2P(C)(C)=O)n1 (centres unmarked) [Compound 142, 5-(4-((1-(4-((5-chloro-4-((2-(dimethylphosphoryl)-4-fluorophenyl)amino)pyrimidin-2-yl)amino)-5-methoxy-2-(1-methyl-1H-pyrazol-4-yl)phenyl)piperidin-4-yl)methyl)piperazin-1-yl)-2-(2,6-dioxopiperidin-3-yl)isoindoline-1,3-dione]
< 100	29	≥ 10000	–	–	–	COc1cc(N2CCN(C[C@H]3CCN(c4ccc5c(c4)C(=O)N(C4CCC(=O)NC4=O)C5=O)C3)CC2)c(-c2cnn(C)c2)cc1Nc1ncc(Cl)c(Nc2ccc(C3CC3)cc2P(C)(C)=O)n1 (stereo partly drawn) [Compound 119, 5-((R)-3-((4-(4-((5-chloro-4-((4-cyclopropyl-2-(dimethylphosphoryl)phenyl)amino)pyrimidin-2-yl)amino)-5-methoxy-2-(1-methyl-1H-pyrazol-4-yl)phenyl)piperazin-1-yl)methyl)pyrrolidin-1-yl)-2-(2,6-dioxopiperidin-3-yl)isoindoline-1,3-dione]

The next lines start with the compound.

SMILES	IC50 ([1]; read-out: IC50 (class symbol)) [nM]	IC50 [1, 3] [nM]	IC50 (A431 (EGFR-WT) cells) [nM]	AUC(0-t) [2] [ng·h/mL]	AUC [2] [ng·h/mL]	half-life [2] [h]
COc1cc(N2CCC(CN3CCC4(CCCN(c5ccc6c(c5)C(=O)N(C5CCC(=O)NC5=O)C6=O)C4)CC3)CC2)c(-c2cnn(C)c2)cc1Nc1ncc(Br)c(Nc2ccc(-c3ccccc3)cc2P(C)(C)=O)n1 (centres unmarked) [Compound 38, 5-(9-((1-(4-((5-bromo-4-((3-(dimethylphosphoryl)-[1,1′-biphenyl]-4-yl)amino)pyrimidin-2-yl)amino)-5-methoxy-2-(1-methyl-1H-pyrazol-4-yl)phenyl)piperidin-4-yl)methyl)-2,9-diazaspiro[5.5]undecan-2-yl)-2-(2,6-dioxopiperidin-3-yl)isoindoline-1,3-dione]	< 100	60	≥ 10000	3730	–	–
COc1cc(N2CCC(N3CCN(CC4CCN(c5ccc6c(c5)C(=O)N(C5CCC(=O)NC5=O)C6=O)C4)CC3)CC2)c(-c2cnn(C)c2)cc1Nc1ncc(Br)c(Nc2ccc(-c3ccccc3)cc2P(C)(C)=O)n1 (centres unmarked) [Compound 76, 5-(3-((4-(1-(4-((5-bromo-4-((3-(dimethylphosphoryl)-[1,1′-biphenyl]-4-yl)amino)pyrimidin-2-yl)amino)-5-methoxy-2-(1-methyl-1H-pyrazol-4-yl)phenyl)piperidin-4-yl)piperazin-1-yl)methyl)pyrrolidin-1-yl)-2-(2,6-dioxopiperidin-3-yl)isoindoline-1,3-dione]	< 100	31	≥ 10000	19600	–	–
COc1cc(N2CCC(CN3CCC4(CCCN(c5ccc6c(c5)C(=O)N(C5CCC(=O)NC5=O)C6=O)C4)CC3)CC2)c(-c2cnn(C)c2)cc1Nc1ncc(Cl)c(Nc2ccc(-c3ccccc3)cc2P(C)(C)=O)n1 (centres unmarked) [Compound 89, 5-(9-((1-(4-((5-chloro-4-((3-(dimethylphosphoryl)-[1,1′-biphenyl]-4-yl)amino)pyrimidin-2-yl)amino)-5-methoxy-2-(1-methyl-1H-pyrazol-4-yl)phenyl)piperidin-4-yl)methyl)-2,9-diazaspiro[5.5]undecan-2-yl)-2-(2,6-dioxopiperidin-3-yl)isoindoline-1,3-dione]	< 100	84	≥ 10000	8430	–	–
COc1cc(N2CCC(N3CCN(CC4CCN(c5ccc(C(=O)NC6CCC(=O)NC6=O)nc5)CC4)CC3)CC2)c(-c2cnn(C)c2)cc1Nc1ncc(Br)c(Nc2ccc(-c3ccccc3)cc2P(C)(C)=O)n1 (centres unmarked) [Compound 56, 5-(4-((4-(1-(4-((5-bromo-4-((3-(dimethylphosphoryl)-[1,1′-biphenyl]-4-yl)amino)pyrimidin-2-yl)amino)-5-methoxy-2-(1-methyl-1H-pyrazol-4-yl)phenyl)piperidin-4-yl)piperazin-1-yl)methyl)piperidin-1-yl)-N-(2,6-dioxopiperidin-3-yl)picolinamide]	< 100	61	–	28600	–	–
COc1cc(N2CCC(N3CCN(CC4CCN(c5cc6c(cc5F)C(=O)N(C5CCC(=O)NC5=O)C6=O)CC4)CC3)CC2)c(-c2cnn(C)c2)cc1Nc1ncc(Cl)c(Nc2ccc(-c3ccccc3)cc2P(C)(C)=O)n1 (centres unmarked) [Compound 93, 5-(4-((4-(1-(4-((5-chloro-4-((3-(dimethylphosphoryl)-[1,1′-biphenyl]-4-yl)amino)pyrimidin-2-yl)amino)-5-methoxy-2-(1-methyl-1H-pyrazol-4-yl)phenyl)piperidin-4-yl)piperazin-1-yl)methyl)piperidin-1-yl)-2-(2,6-dioxopiperidin-3-yl)-6-fluoroisoindoline-1,3-dione]	< 100	49	≥ 10000	4620	–	–
COc1cc(N2CCC3(CCN(CC4CCN(c5cc6c(cc5F)C(=O)N(C5CCC(=O)NC5=O)C6=O)CC4)CC3)CC2)c(-c2cnn(C)c2)cc1Nc1ncc(Br)c(Nc2ccc(-c3ccccc3)cc2P(C)(C)=O)n1 (centres unmarked) [Compound 39, 5-(4-((9-(4-((5-bromo-4-((3-(dimethylphosphoryl)-[1,1′-biphenyl]-4-yl)amino)pyrimidin-2-yl)amino)-5-methoxy-2-(1-methyl-1H-pyrazol-4-yl)phenyl)-3,9-diazaspiro[5.5]undecan-3-yl)methyl)piperidin-1-yl)-2-(2,6-dioxopiperidin-3-yl)-6-fluoroisoindoline-1,3-dione]	< 100	51	–	6000	–	–
CCn1cc(-c2cc(Nc3ncc(Br)c(Nc4ccc(-c5ccccc5)cc4P(C)(C)=O)n3)c(OC)cc2N2CCC(CN3CCN(c4ccc5c(c4)C(=O)N(C4CCC(=O)NC4=O)C5=O)CC3)CC2)cn1 (centres unmarked) [Compound 111, 5-(4-((1-(4-((5-bromo-4-((3-(dimethylphosphoryl)-[1,1′-biphenyl]-4-yl)amino)pyrimidin-2-yl)amino)-2-(1-ethyl-1H-pyrazol-4-yl)-5-methoxyphenyl)piperidin-4-yl)methyl)piperazin-1-yl)-2-(2,6-dioxopiperidin-3-yl)isoindoline-1,3-dione]	100 to 500	209	≥ 10000	–	–	–
